In patent US9776995B2, “Bicyclic sulfonamide compounds as sodium channel inhibitors” (AMGEN INC., priority 2013, dated 2017):

molecular target: Nav 1.7 (Homo sapiens (Human), UniProt Q15858); assay: Nav 1.7 in vitro PX assay (PatchXpress whole cell voltage clamp); assay type: cell-based; details: not given;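 note: holding potential set for 20 to 50% inactivation, sodium current evoked by a 20 ms step to −10 mV, peak current inhibition read after compound exposure, 3–5 cells per concentration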
Sequence (Q15858 whole entry): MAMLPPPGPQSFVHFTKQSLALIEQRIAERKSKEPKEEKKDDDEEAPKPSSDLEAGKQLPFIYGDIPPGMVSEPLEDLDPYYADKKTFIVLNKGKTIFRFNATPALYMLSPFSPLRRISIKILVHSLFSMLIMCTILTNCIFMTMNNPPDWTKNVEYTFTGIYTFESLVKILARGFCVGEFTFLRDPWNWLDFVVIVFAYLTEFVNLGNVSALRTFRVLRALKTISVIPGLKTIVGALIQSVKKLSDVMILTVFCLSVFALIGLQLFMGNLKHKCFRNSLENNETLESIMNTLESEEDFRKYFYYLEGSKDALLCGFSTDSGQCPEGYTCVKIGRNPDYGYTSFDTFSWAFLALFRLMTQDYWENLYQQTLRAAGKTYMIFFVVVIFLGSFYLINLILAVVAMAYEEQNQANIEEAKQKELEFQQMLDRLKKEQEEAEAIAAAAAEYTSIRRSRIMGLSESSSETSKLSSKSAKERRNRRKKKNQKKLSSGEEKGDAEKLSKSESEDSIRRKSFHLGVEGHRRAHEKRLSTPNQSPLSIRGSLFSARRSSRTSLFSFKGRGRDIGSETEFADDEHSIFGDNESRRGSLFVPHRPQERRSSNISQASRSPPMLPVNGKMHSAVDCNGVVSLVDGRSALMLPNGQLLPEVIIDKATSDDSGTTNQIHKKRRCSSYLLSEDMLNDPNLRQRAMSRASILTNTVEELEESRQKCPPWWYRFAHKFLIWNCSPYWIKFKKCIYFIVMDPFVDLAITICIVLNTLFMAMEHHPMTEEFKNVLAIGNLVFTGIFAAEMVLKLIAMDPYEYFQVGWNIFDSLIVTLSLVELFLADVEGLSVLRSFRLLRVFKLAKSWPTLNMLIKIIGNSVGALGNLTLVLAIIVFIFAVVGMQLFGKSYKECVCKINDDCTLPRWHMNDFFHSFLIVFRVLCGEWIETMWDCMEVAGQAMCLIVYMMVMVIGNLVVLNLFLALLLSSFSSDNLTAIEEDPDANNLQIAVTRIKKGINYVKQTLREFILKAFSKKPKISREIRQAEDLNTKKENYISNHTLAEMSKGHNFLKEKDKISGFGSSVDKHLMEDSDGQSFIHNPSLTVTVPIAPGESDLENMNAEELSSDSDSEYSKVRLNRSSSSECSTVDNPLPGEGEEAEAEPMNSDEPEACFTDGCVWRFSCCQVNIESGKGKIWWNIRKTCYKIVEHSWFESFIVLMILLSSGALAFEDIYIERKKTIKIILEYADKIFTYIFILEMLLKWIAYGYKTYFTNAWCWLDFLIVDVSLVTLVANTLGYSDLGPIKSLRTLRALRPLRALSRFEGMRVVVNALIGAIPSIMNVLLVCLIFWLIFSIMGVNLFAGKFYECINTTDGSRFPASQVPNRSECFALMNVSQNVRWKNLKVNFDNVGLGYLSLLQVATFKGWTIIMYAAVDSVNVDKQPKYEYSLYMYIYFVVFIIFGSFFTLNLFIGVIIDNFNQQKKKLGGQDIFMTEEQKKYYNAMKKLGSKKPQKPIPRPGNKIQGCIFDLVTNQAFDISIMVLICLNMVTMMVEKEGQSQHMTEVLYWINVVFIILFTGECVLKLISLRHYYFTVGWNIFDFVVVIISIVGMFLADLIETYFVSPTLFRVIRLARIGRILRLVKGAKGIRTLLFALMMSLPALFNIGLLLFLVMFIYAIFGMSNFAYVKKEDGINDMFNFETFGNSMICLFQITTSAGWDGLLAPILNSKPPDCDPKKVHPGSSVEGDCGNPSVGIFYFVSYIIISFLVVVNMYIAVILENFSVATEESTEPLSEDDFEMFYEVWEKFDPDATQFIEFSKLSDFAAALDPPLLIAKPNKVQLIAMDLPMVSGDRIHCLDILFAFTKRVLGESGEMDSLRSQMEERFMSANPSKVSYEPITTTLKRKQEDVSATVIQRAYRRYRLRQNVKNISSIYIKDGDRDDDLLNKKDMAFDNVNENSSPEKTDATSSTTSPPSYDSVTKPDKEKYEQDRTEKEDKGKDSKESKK

`COc1cc(-c2cccc(C(F)(F)F)c2)c(C#N)cc1-c1nccc2cc(S(=O)(=O)Nc3ncccn3)ccc12` [Example 373, 1-(2-cyano-5-methoxy-3′-(trifluoromethyl)-[1,1′-biphenyl]-4-yl)-N-(pyrimidin-2-yl)isoquinoline-6-sulfonamide] showed an IC50 of 57 nM.

same assay, conditions: HEK 293 cells stably transfected with human Nav1.7; PatchXpress; partially inactivated state

Compared with `COc1cc(-c2cccc(F)c2)c(Cl)cc1-c1c(=O)[nH]cc2cc(S(=O)(=O)Nc3ccon3)ccc12` [Example 398, 4-(2-CHLORO-3′-FLUORO-5-METHOXY-[1,1′-BIPHENYL]-4-YL)-N-(ISOXAZOL-3-YL)-3-OXO-2,3-DIHYDROISOQUINOLINE-7-SULFONAMIDE], `COc1cc(-c2cccc(F)c2)c(Cl)cc1-c1c(C)ncc2cc(S(=O)(=O)Nc3ccon3)ccc12` (atropisomer, axis not shown; (M)) [Example 317, (M)-4-(2-chloro-3′-fluoro-5-methoxy-4-biphenylyl)-N-3-isoxazolyl-3-methyl-7-isoquinolinesulfonamide] is 2.7-fold higher in IC50: 27 nM for the first, 72 nM for the second.

Going from `COc1cc(-c2cccc(C(F)(F)F)c2)c(F)cc1-c1c2ccc(S(=O)(=O)Nc3ccon3)cc2cc(=O)n1C` (atropisomer, axis not shown; (P)) [Example 551, (P)-1-(2-fluoro-5-methoxy-3′-(trifluoromethyl)-4-biphenylyl)-N-3-isoxazolyl-2-methyl-3-oxo-2,3-dihydro-6-isoquinolinesulfonamide] to `COc1cc(-c2ccc(Cl)c(C)c2)c(F)cc1-c1c(=O)[nH]cc2cc(S(=O)(=O)Nc3ccon3)ccc12` [Example 549, 4-(4′-chloro-2-fluoro-5-methoxy-3′-methyl-4-biphenylyl)-N-3-isoxazolyl-3-oxo-2,3-dihydro-7-isoquinolinesulfonamide], the IC50 falls from 28 nM to 8 nM (3.5-fold).

Going from `COc1cc(-c2cc(F)cc(F)c2)c(Cl)cc1-c1ncnc2cc(S(=O)(=O)Nc3ncccn3)ccc12` [Example 435, 4-(2-CHLORO-3′,5′-DIFLUORO-5-METHOXY-[1,1′-BIPHENYL]-4-YL)-N-(PYRIMIDIN-2-YL)QUINAZOLINE-7-SULFONAMIDE] to `COc1cc(-c2cccc(F)c2)c(Cl)cc1-c1ncnc2cc(S(=O)(=O)Nc3ccc(F)cn3)ccc12` [Example 479], the IC50 rises from 86 nM to 221 nM (2.6-fold). The first is the more potent here.

Going from `COc1cc(-c2cccc(F)c2)c(Cl)cc1-c1c(C)cnc2cc(S(=O)(=O)Nc3ccon3)ccc12` (atropisomer, axis not shown; (M)) [Example 330, (M)-4-(2-chloro-3′-fluoro-5-methoxy-[1,1′-biphenyl]-4-yl)-N-(isoxazol-3-yl)-3-methylquinoline-7-sulfonamide] to `COc1cc(-c2cccc(F)c2)c(Cl)cc1-c1c(N)cnc2cc(S(=O)(=O)Nc3ccon3)ccc12` [Example 336, 3-amino-4-(2-chloro-3′-fluoro-5-methoxy-[1,1′-biphenyl]-4-yl)-N-(isoxazol-3-yl)quinoline-7-sulfonamide], the IC50 falls from 496 nM to 35 nM (14-fold).

`COc1cc(F)c(-c2cncc(F)c2)cc1-c1nccc2cc(S(=O)(=O)Nc3ccon3)ccc12` [Example 392, 1-(4-fluoro-5-(5-fluoropyridin-3-yl)-2-methoxyphenyl)-N-(isoxazol-3-yl)isoquinoline-6-sulfonamide 2,2,2-trifluoroacetate] and `CCc1cnc2cc(S(=O)(=O)Nc3ccon3)ccc2c1-c1cc(Cl)c(-c2cccc(F)c2)cc1OC` (atropisomer, axis not shown; (P)) [Example 333, (P)-4-(2-chloro-3′-fluoro-5-methoxy-[1,1′-biphenyl]-4-yl)-3-ethyl-N-(isoxazol-3-yl)quinoline-7-sulfonamide] are within 1.5-fold of each other in IC50: 491 nM for the first, 591 nM for the second.

Compared with `COc1cc(-c2cccc(F)c2)c(Cl)cc1-c1[nH]c(=O)cc2cc(S(=O)(=O)Nc3ncccn3)ccc12` [Example 553, 1-(2-chloro-3′-fluoro-5-methoxy-4-biphenylyl)-3-oxo-N-2-pyrimidinyl-2,3-dihydro-6-isoquinolinesulfonamide], `CCc1cnc2cc(S(=O)(=O)Nc3ccon3)ccc2c1-c1cc(Cl)c(-c2cccc(F)c2)cc1OC` (atropisomer, axis not shown; (M)) [Example 332, (M)-4-(2-chloro-3′-fluoro-5-methoxy-[1,1′-biphenyl]-4-yl)-3-ethyl-N-(isoxazol-3-yl)quinoline-7-sulfonamide] is 750-fold higher in IC50: 45 nM for the first, 33700 nM for the second.

`COc1cc(-c2cccc(F)c2)c(Cl)cc1-c1c(OC)cnc2cc(S(=O)(=O)Nc3ccon3)ccc12` (atropisomer, axis not shown; (P)) [Example 340, (P)-4-(2-chloro-3′-fluoro-5-methoxy-[1,1′-biphenyl]-4-yl)-N-(isoxazol-3-yl)-3-methoxyquinoline-7-sulfonamide] and `COc1cc(-c2cccc(C(F)(F)F)c2)c(C#N)cc1-c1nccc2cc(S(=O)(=O)Nc3ncc(F)cn3)ccc12` [Example 374, 1-(2-Cyano-5-methoxy-3′-(trifluoromethyl)-[1,1′-biphenyl]-4-yl)-N-(5-fluoropyrimidin-2-yl)isoquinoline-6-sulfonamide] are within 1.5-fold of each other in IC50: 84 nM for the first, 94 nM for the second.

same assay, conditions: PatchXpress (PX)

`COc1cc(C(F)(F)F)c(Cl)cc1-c1nccc2cc(S(=O)(=O)Nc3ccon3)ccc12` [Example 249, 1-(5-chloro-2-methoxy-4-(trifluoromethyl)phenyl)-N-3-isoxazolyl-6-isoquinolinesulfonamide] and `COc1cc(C(F)(F)F)c(C)cc1-c1nccc2cc(S(=O)(=O)Nc3ccon3)ccc12` [Example 60, N-(ISOXAZOL-3-YL)-1-(2-METHOXY-5-METHYL-4-(TRIFLUOROMETHYL)PHENYL)ISOQUINOLINE-6-SULFONAMIDE] are within 1.5-fold of each other in IC50: 224 nM for the first, 189 nM for the second.

`COc1cc(-c2ccc(Cl)c(C)c2)c(C)cc1-c1ncnc2cc(S(=O)(=O)Nc3ccon3)ccc12` [Example 252, 4-(4′-chloro-5-methoxy-2,3′-dimethyl-4-biphenylyl)-N-3-isoxazolyl-7-quinazolinesulfonamide] and `COc1cc(-c2ccc(F)c(C)c2)c(C)cc1-c1ncnc2cc(S(=O)(=O)Nc3ccon3)ccc12` [Example 261, 4-(4′-fluoro-5-methoxy-2,3′-dimethyl-4-biphenylyl)-N-3-isoxazolyl-7-quinazolinesulfonamide] are within 1.5-fold of each other in IC50: 32 nM for the first, 38.1 nM for the second.

Going from `COc1cc(-c2cc(C)c(C)cc2C)c(C)cc1-c1ncnc2cc(S(=O)(=O)Nc3ccon3)ccc12` [Example 262, N-3-isoxazolyl-4-(5-methoxy-2,2′,4′,5′-tetramethyl-4-biphenylyl)-7-quinazolinesulfonamide] to `COc1cc(-c2cc(C)cc(Cl)c2)c(C)cc1-c1ncnc2cc(S(=O)(=O)Nc3ccon3)ccc12` [Example 268, 4-(3′-chloro-5-methoxy-2,5′-dimethyl-4-biphenylyl)-N-3-isoxazolyl-7-quinazolinesulfonamide], the IC50 falls from 62.5 nM to 23.9 nM (2.6-fold). The second is the more potent here.

First: COc1cc(-c2cccc(Cl)c2)c(C)cc1-c1ncnc2cc(S(=O)(=O)Nc3ccon3)ccc12 [Example 264, 4-(3′-chloro-5-methoxy-2-methyl-4-biphenylyl)-N-3-isoxazolyl-7-quinazolinesulfonamide]
Second: COc1cc(-c2ccc(F)c(C)c2)c(C)cc1-c1nccc2cc(S(=O)(=O)Nc3ccon3)ccc12 [Example 274, 1-(4′-fluoro-5-methoxy-2,3′-dimethyl-4-biphenylyl)-N-3-isoxazolyl-6-isoquinolinesulfonamide]
The IC50 of the first is 5.2-fold lower: 12.1 nM for the first, 63.2 nM for the second.

`COc1cc(C(F)(F)F)c(C2CC2)cc1-c1nccc2cc(S(=O)(=O)Nc3ccon3)ccc12` [Example 258, 1-(5-cyclopropyl-2-methoxy-4-(trifluoromethyl)phenyl)-N-3-isoxazolyl-6-isoquinolinesulfonamide] was tested, and the IC50 was 543 nM.

same assay, conditions: in-vitro Nav 1.7 PX (PatchXpress)

First: COc1cc(F)cc(-c2cc(OC)c(-c3nccc4cc(S(=O)(=O)Nc5ccon5)ccc34)cc2F)c1 [Example 305, 1-(2,3′-difluoro-5,5′-dimethoxy-4-biphenylyl)-N-3-isoxazolyl-6-isoquinolinesulfonamide]
Second: COc1cc(-c2ccc(F)c(Cl)c2)c(C)cc1-c1nccc2cc(S(=O)(=O)Nc3ccon3)ccc12 [Example 284, 1-(3′-chloro-4′-fluoro-5-methoxy-2-methyl-4-biphenylyl)-N-3-isoxazolyl-6-isoquinolinesulfonamide]
The IC50 of the first is 1.8-fold higher: 40 nM for the first, 22.8 nM for the second. The second is the more potent here.

First: COc1cc(-c2cccc(F)c2)c(C#N)cc1-c1cccc2cc(S(=O)(=O)Nc3ccon3)ccc12 [Example 292, 5-(2-cyano-3′-fluoro-5-methoxy-4-biphenylyl)-N-3-isoxazolyl-2-naphthalenesulfonamide]
Second: COc1cc(-c2ccc(C)c(Cl)c2)c(C)cc1-c1nccc2cc(S(=O)(=O)Nc3ccon3)ccc12 [Example 282, 1-(3′-chloro-5-methoxy-2,4′-dimethyl-4-biphenylyl)-N-3-isoxazolyl-6-isoquinolinesulfonamide]
The IC50 of the first is 2.6-fold higher: 256 nM for the first, 98.6 nM for the second.

`COc1cc(-c2cc(C)cc(F)c2)c(Cl)cc1-c1ncnc2cc(S(=O)(=O)Nc3ccon3)ccc12` [Example 309, 4-(2-chloro-3′-fluoro-5-methoxy-5′-methyl-4-biphenylyl)-N-3-isoxazolyl-7-quinazolinesulfonamide] was tested, and the IC50 was 40 nM.

molecular target: Nav 1.5 (Homo sapiens (Human), UniProt Q14524); assay: in-vitro Nav 1.5 PX data; details: read-out: Nav 1.5 PX IC50; PatchXpress (PX), in vitro
Sequence (Q14524 whole entry): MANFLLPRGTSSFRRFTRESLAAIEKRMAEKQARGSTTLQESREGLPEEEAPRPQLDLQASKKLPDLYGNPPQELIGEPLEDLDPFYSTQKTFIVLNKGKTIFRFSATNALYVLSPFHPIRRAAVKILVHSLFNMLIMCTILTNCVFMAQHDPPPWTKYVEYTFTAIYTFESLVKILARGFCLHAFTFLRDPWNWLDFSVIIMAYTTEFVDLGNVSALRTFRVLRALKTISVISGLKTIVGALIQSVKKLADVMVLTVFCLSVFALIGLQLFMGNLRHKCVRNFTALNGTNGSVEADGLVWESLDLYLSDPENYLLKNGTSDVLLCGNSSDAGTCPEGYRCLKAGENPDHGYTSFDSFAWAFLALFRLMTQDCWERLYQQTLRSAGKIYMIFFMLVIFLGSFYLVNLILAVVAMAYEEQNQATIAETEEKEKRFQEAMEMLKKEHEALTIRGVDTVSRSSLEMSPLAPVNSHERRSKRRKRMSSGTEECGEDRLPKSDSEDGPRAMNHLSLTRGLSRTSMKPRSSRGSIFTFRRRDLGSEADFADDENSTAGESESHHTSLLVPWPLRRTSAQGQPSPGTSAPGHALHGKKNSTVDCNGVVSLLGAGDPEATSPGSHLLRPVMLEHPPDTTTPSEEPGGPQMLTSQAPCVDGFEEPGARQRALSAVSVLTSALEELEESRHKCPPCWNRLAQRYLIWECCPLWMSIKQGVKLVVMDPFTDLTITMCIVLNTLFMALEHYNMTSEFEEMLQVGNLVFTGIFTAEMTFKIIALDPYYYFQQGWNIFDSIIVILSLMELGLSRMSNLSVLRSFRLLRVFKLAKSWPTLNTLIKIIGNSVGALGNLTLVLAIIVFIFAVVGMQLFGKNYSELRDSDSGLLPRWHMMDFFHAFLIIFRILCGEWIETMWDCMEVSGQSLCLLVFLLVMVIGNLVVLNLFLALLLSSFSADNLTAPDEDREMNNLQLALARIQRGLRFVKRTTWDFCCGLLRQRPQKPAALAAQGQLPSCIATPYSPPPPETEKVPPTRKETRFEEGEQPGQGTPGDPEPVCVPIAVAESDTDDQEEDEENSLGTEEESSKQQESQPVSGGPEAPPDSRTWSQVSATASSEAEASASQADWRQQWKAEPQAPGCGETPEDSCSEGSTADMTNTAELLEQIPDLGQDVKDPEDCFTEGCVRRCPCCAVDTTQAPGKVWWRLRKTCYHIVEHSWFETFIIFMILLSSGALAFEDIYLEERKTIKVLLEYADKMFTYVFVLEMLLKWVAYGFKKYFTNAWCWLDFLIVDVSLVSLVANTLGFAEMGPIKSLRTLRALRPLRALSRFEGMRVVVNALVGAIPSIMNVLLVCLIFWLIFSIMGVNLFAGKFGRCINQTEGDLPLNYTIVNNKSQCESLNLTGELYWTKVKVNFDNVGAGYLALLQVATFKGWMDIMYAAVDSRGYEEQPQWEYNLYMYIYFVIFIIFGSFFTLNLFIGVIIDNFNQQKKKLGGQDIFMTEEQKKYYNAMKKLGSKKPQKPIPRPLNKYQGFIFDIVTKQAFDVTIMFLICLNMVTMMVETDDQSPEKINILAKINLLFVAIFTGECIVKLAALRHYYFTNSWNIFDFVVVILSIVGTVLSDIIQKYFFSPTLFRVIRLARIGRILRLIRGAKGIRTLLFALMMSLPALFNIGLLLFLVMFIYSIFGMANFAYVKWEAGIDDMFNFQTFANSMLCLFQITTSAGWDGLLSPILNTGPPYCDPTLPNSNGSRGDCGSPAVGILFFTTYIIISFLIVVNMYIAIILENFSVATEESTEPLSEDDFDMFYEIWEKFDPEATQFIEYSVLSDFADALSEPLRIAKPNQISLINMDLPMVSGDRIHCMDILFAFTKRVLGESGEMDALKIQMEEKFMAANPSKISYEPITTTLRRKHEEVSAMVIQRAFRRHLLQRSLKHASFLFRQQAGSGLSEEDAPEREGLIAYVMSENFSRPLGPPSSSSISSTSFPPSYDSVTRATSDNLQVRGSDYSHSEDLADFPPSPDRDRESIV

`COc1cc(-c2ccc(C)c(F)c2)c(C#N)cc1-c1nccc2cc(S(=O)(=O)Nc3ccon3)ccc12` [Example 81, 1-(2-cyano-3′-fluoro-5-methoxy-4′-methyl-4-biphenylyl)-N-3-isoxazolyl-6-isoquinolinesulfonamide] was tested, and the IC50 was over 10000 nM.

same assay, conditions: read-out: Nav 1.5 PX IC50; in-vitro PX

`COc1cc(-c2cccc(F)c2)c(Cl)cc1-c1ncnc2cc(S(=O)(=O)Nc3ccon3)ccc12` [Example 227, 4-(2-chloro-3′-fluoro-5-methoxy-4-biphenylyl)-N-3-isoxazolyl-7-quinazolinesulfonamide] and `COc1cc(-c2ccc(Cl)c(F)c2)c(C#N)cc1-c1nccc2cc(S(=O)(=O)Nc3nncs3)ccc12` [Example 224, 1-(4′-chloro-2-cyano-3′-fluoro-5-methoxy-4-biphenylyl)-N-1,3,4-thiadiazol-2-yl-6-isoquinolinesulfonamide] cannot be ordered by IC50: over 10000 nM for the first, over 10000 nM for the second.

`COc1cc(-c2ccc(F)c(Cl)c2)c(C#N)cc1-c1nccc2cc(S(=O)(=O)Nc3nncs3)ccc12` [Example 221, 1-(3′-chloro-2-cyano-4′-fluoro-5-methoxy-4-biphenylyl)-N-1,3,4-thiadiazol-2-yl-6-isoquinolinesulfonamide] was tested, and the IC50 was over 10000 nM.
